Paper PMC12155096 (International Journal of Molecular Sciences, 2025)
Where two headings read alike, the source gives them in different places.

Columns and labels:
[1] = target: CYP3A4 (Homo sapiens, UniProt P08684)
[2] = target: T1, human CYP2C19 (Homo sapiens, UniProt P33261)
[3] = target: T2, human CYP1A2 (Homo sapiens, UniProt P05177); experiment: biochemical
T2 sequence (P05177 1-516): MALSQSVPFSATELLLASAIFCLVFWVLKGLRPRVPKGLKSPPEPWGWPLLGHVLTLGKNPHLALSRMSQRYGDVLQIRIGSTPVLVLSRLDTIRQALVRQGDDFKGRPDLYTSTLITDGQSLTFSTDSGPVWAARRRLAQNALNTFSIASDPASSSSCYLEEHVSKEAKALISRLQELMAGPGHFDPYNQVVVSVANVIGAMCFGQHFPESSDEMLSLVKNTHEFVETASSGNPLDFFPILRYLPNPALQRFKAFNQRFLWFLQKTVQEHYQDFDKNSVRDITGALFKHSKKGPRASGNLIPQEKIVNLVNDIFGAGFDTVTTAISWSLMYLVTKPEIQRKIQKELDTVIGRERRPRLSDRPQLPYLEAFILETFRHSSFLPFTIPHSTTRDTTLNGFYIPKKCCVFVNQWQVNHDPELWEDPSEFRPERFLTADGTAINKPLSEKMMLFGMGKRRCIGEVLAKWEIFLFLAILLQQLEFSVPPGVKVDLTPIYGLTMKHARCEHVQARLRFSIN

[4] = target: human CYP2D6 (Homo sapiens, UniProt P10635)
Chain of human CYP2D6 (P10635 whole entry): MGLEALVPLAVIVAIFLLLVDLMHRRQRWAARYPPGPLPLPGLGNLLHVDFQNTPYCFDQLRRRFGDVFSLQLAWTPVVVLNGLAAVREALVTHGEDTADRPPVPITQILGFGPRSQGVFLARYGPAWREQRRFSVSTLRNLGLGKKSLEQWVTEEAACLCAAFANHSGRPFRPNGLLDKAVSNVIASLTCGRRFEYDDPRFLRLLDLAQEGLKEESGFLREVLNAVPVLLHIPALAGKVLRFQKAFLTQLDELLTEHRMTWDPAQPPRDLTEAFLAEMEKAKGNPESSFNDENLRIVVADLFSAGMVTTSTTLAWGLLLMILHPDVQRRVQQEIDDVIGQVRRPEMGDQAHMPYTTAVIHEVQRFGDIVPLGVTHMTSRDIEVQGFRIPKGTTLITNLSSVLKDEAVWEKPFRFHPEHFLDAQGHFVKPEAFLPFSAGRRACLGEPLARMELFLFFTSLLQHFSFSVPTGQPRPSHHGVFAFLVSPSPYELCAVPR

[5] = target: T3, human CYP2C9 (Homo sapiens, UniProt P11712); experiment: biochemical
T3 sequence (P11712 whole entry): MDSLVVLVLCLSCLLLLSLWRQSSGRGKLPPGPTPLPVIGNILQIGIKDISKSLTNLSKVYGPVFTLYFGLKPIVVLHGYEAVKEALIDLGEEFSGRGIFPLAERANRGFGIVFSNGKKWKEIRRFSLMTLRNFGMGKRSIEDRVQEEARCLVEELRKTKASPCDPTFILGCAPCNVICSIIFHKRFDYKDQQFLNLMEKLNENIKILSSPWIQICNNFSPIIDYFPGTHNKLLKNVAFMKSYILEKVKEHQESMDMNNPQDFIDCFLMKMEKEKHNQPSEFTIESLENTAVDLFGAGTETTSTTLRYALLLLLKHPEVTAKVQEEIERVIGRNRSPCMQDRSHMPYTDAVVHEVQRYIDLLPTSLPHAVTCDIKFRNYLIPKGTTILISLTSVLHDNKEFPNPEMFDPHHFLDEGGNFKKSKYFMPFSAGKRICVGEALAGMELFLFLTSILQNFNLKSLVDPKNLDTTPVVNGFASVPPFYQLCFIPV

[6] = target: T3, human CYP2C9
[7] = target: T2, human CYP1A2
[8] = target: T1, human CYP2C19; experiment: biochemical
[9] = CYP1A2 AC50 (half-maximal activity concentration)
[10] = CYP2C9 AC50 (half-maximal activity concentration)

Chain of CYP3A4 (P08684 whole entry): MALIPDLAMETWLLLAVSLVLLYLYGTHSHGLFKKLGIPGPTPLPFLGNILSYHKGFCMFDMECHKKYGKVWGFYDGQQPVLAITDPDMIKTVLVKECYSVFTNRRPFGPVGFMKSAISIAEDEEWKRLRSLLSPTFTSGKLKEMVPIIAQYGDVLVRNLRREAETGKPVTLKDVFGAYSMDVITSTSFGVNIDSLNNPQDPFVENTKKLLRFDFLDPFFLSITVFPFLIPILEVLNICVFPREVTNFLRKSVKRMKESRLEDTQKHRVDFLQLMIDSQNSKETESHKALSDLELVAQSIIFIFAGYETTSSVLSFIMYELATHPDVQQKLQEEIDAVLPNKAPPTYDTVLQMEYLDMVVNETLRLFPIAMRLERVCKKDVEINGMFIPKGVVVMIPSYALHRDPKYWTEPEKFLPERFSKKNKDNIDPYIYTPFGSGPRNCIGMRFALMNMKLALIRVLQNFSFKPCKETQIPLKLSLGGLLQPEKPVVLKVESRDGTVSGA
T1 sequence (P33261 whole entry): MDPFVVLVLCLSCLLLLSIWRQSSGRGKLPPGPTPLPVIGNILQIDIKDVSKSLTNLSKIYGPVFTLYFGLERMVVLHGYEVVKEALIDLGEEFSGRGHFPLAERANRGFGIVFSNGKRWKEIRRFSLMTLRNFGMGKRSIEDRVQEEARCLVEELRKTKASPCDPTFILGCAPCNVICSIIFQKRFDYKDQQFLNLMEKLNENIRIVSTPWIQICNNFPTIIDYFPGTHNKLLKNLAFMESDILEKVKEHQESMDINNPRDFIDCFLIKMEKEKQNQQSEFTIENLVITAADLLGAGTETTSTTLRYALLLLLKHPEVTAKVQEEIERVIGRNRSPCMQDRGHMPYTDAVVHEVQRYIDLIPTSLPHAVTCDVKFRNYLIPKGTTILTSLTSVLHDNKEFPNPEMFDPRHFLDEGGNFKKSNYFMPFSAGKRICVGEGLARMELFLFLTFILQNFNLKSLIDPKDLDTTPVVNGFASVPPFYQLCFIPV

Row | Compound | CYP3A4 AC50 (half-maximal activity concentration) [1] | CYP2C19 AC50 (half-maximal activity concentration) [2] | CYP2D6 AC50 (half-maximal activity concentration) [4] | AC50 [1] [µM] | AC50 [7] [µM] | AC50 [6] [µM] | AC50 [2] [µM] | other results
1 | Oc1cc(Cl)c(Cl)cc1Cl [2,4,5-Trichlorophenol] | Inactive | Inconclusive inhibitor | Inactive | – | – | – | – | AC50 [3, 9]: 20.8 µM; AC50 [5, 10]: 22.4 µM
2 | Oc1cc(Cl)ccc1Cl [2,5-Dichlorophenol] | Inactive | Inconclusive inhibitor | Inactive | – | – | – | – | AC50 [3, 9]: 33.9 µM; AC50 [5, 10]: 32.8 µM
3 | CCOc1ccccc1C(N)=O [2-Ethoxybenzamide] | Inactive | Inactive | Inactive | – | – | – | – | AC50 [3]: 16.8 ± 1.09 µM; AC50 [5]: 31 ± 3.57 µM
4 | COc1cccc(O)c1 [3-Methoxyphenol] | Inactive | Inactive | Inactive | – | – | – | – | AC50 [3]: 49.3 µM; AC50 [5]: 40.4 µM
5 | CC(C)(C)c1cccc(O)c1 [3-tert-Butylphenol] | Inactive | – | Inactive | – | – | – | – | CYP2C9 AC50 (half-maximal activity concentration) [6]: Inconclusive inhibitor; CYP1A2 AC50 (half-maximal activity concentration) [7]: Inconclusive inhibitor; AC50 [8]: 23.9 µM
6 | Cc1cc(O)cc(C)c1Cl [4-Chloro-3,5-dimethylphenol] | Inactive | Inconclusive inhibitor | Inactive | – | – | – | – | AC50 [3, 9]: 14.2 µM; AC50 [5, 10]: 17.4 µM
7 | Cc1cc(=O)oc2cc(O)ccc12 [4-Methylumbelliferone] | Inactive | Inactive | Inactive | – | – | – | – | AC50 [3, 9]: 28.6 µM; AC50 [5, 10]: 14.6 µM
8 | Oc1ccc(Cc2ccc(O)cc2)cc1 [Bis(4-hydroxyphenyl)methane] | Inconclusive inhibitor | Inconclusive inhibitor | Inconclusive inhibitor | – | – | – | – | AC50 [3, 9]: 38.8 µM; AC50 [5, 10]: 11.8 µM
9 | COC(=O)Nc1nc2ccc(C(=O)c3ccccc3)cc2[nH]1 [Mebendazole] | Inactive | Inactive | Inactive | – | – | – | – | AC50 [3, 9]: 14 µM; AC50 [5, 10]: 3.89 µM
10 | CCCOc1ccc2c(c1)CC[C@@H]1[C@@H]2CC[C@]2(C)[C@@H](OC)CC[C@@H]12 [Promestriene] | – | Inconclusive inhibitor | – | 9.46 | 33.7 | – | – | CYP2C9 AC50 (half-maximal activity concentration) [6]: Inconclusive inhibitor; AC50 [4]: 21.5 µM
11 | CCCCCCCCS(=O)(=O)[O-].[Na+] [Sodium 1-octanesulfonate] | – | Inactive | Inactive | 33.1 | – | 44.1 | – | CYP1A2 AC50 (half-maximal activity concentration) [7]: Inactive
12 | CCCCCCCCc1ccc(S(=O)(=O)[O-])cc1.[Na+] [Sodium 4-octylbenzenesulfonate] | – | Inactive | Inactive | 63.9 | – | 76.8 | – | CYP1A2 AC50 (half-maximal activity concentration) [7]: Inactive
13 | C=Cc1ccc(S(=O)(=O)[O-])cc1.[Na+] [Sodium 4-vinylbenzenesulfonate] | – | Inactive | Inactive | 30.1 | 63.5 | – | – | CYP2C9 AC50 (half-maximal activity concentration) [6]: Inactive
14 | CCOC(=O)c1ccc(NC(=O)CN2CCCCC2)cc1 [Sulcaine] | – | Inactive | – | 26.4 | 22.2 | 37.8 | – | AC50 [4]: 16.8 µM
15 | O=C(O)CC(C(=O)O)S(=O)(=O)O (stereo not drawn) [Sulfosuccinic acid] | – | – | – | 43.2 | 33 | – | 11.9 | CYP2C9 AC50 (half-maximal activity concentration) [6]: Inactive; AC50 [4]: 60.6 µM
16 | CN(C)C1CSSSC1.O=C(O)C(=O)O [Thiocyclam oxalate] | – | – | – | 33 | 61 | 28.3 | 38.5 | AC50 [4]: 38.5 µM
17 | Cc1ccc(C(C)OC(=O)[C@]2(C)CC[C@H](C(=O)O)C2(C)C)cc1.OCCNCCO (stereo partly drawn) [Tocanfil] | – | Inactive | Inactive | 14.4 | – | 36.1 | – | CYP1A2 AC50 (half-maximal activity concentration) [7]: Inactive
18 | CCCCCCCCCCCC(=O)O.OCCN(CCO)CCO [Triethanolamine Laurate] | – | – | Inactive | 89.2 | – | 115 | 135 | CYP1A2 AC50 (half-maximal activity concentration) [7]: Inconclusive inhibitor
19 | O=C(OCCOCCOCCOC(=O)c1ccccc1)c1ccccc1 [Triethylene glycol dibenzoate] | Inactive | – | Inconclusive inhibitor | – | 17.8 | 2.75 | 20.8 | –
20 | COC(=O)c1ccc(C(=O)OC)c(C(=O)OC)c1 [Trimethyl benzene-1,2,4-tricarboxylate] | – | – | Inactive | 49.9 | 7.19 | – | 32.3 | CYP2C9 AC50 (half-maximal activity concentration) [6]: Inactive
21 | O=C(CCC1CCN(Cc2ccccc2)CC1)c1ccc2c(c1)NCCCC2.O=C(O)/C=C/C(=O)O [Zanapezil fumerate] | – | Inactive | – | 3.4 | – | – | – | CYP2C9 AC50 (half-maximal activity concentration) [6]: Inconclusive inhibitor; CYP1A2 AC50 (half-maximal activity concentration) [7]: Inconclusive inhibitor; AC50 [4]: 7.12 µM
22 | C[C@H](CSC(=O)c1ccccc1)C(=O)N1C[C@@H](Sc2ccccc2)C[C@H]1C(=O)O [Zofenopril] | Inactive | – | Inactive | – | – | – | – | CYP2C9 AC50 (half-maximal activity concentration) [6]: Inactive; CYP1A2 AC50 (half-maximal activity concentration) [7]: Inactive; AC50 ([8]; CYP2C19 AC50 (half-maximal activity concentration)): 1.71 µM
23 | CCCCC/C(=C\c1ccccc1)CO [alpha-Amylcinnamyl alcohol] | – | – | Inconclusive inhibitor | 13.7 | 3.72 | 36.6 | 1.66 | –
24 | CC1(C)[C@H](C(=O)OCc2cccc(Oc3ccccc3)c2)[C@@H]1C=C(Cl)Cl [cis-Permethrin in cyclohexane] | Inactive | Inactive | Inactive | – | – | – | – | CYP2C9 AC50 (half-maximal activity concentration) [6]: Inactive; CYP1A2 AC50 (half-maximal activity concentration) [7]: Inactive
25 | CC(C)(C)c1ccc(OP(=O)(Oc2ccccc2)Oc2ccccc2)cc1 [tert-Butylphenyl diphenyl phosphate] | – | – | Inactive | 8.02 | 18 | 5.93 | 5.26 | –
26 | Mancozeb | – | – | Inconclusive inhibitor | 5.17 | 14.9 | 3.48 | 4.72 | –
27 | Naphthenic acids | – | – | Inactive | 84.8 | 59.4 | 36.4 | 46.4 | –
